Measurements taken from patent US20040054182A1, “1h-imidazopyridine derivatives” (priority 2000, published 2004).
Where a name gives a salt, the structure may show the parent alone.

Row | melting point | SMILES
1 | 224.5 to 225.5 °C | c1ccc(-c2nc3c(-c4ccco4)nc4ccccc4c3n2CCC2CCNCC2)cc1
2 | 142.5 to 147 °C (dec.) | c1ccc(-c2nc3c(C4CC4)nc4ccccc4c3n2CCC2CCNCC2)cc1 (as salt: fumarate) (hydrate or solvate) [Example 110, 4-Cyclopropyl-2-phenyl-1-[2-(4-piperidyl)ethyl]-1H-imidazo[4,5-c]quinoline]
3 | 228 to 230 °C (dec.) | CN(C)CCn1c(-c2ccc[nH]2)nc2c(C(F)(F)F)nc3ccccc3c21 (as salt: fumarate) [Example 51, 1-(2-Dimethylaminoethyl)-2-(2-pyrrolyl)-4-trifluoromethyl-1H-imidazo[4,5-c]-quinoline]
4 | 210 to 212 °C | c1ccc(-c2nc3c(-c4cccs4)nc4ccccc4c3n2CCC2CCNCC2)cc1 (as salt: salt) [Example 115, 2-Phenyl-1-[2-(4-piperidyl)ethyl]-4-(2-thienyl)-1H-imidazo[4,5-c]quinoline]
5 | 229.5 to 231.5 °C (dec.) | FC(F)(F)c1nc2ccccc2c2c1nc(-c1ccccc1)n2CCC1CCCNC1 (centres unmarked) (as salt: trifluoroacetate)
6 | 249 to 251 °C (dec.) | FC(F)(F)c1nc2ccccc2c2c1nc(-c1ccccc1)n2CCC1CC2CCC(C1)N2 (centres unmarked) (as salt: trifluoroacetate)
7 | 219 to 221 °C (dec.) | FC(F)(F)c1nc2cc(Cl)ccc2c2c1nc(-c1ccco1)n2CCC1CCNCC1 (as salt: trifluoroacetate)
8 | 246 to 248 °C (dec.) | FC(F)(F)c1nc2cc(Cl)ccc2c2c1nc(C1CCCC1)n2CCC1CCNCC1 (as salt: trifluoroacetate)
9 | 161 to 162 °C | Cc1ccc2c(c1)nc(C(F)(F)F)c1nc(-c3ccccc3O)n(CCC3CCNCC3)c12 (as salt: trifluoroacetate)
10 | 133.5 to 136.5 °C (dec.) | FC(F)(F)c1nc2ccccc2c2c1nc(-c1ccco1)n2CCC1CCNCC1 (as salt: trifluoroacetate) (hydrate or solvate)
11 | 239 to 241 °C (dec.) | Fc1ccc2c(c1)nc(C(F)(F)F)c1nc(-c3ccco3)n(CCC3CCNCC3)c12 (as salt: trifluoroacetate) (hydrate or solvate)
12 | 232 to 234 °C (dec.) | Cc1cccc2c1nc(C(F)(F)F)c1nc(-c3ccco3)n(CCC3CCNCC3)c12 (as salt: trifluoroacetate) (hydrate or solvate)
13 | 237 to 239 °C | FC(F)(F)c1nc2ccccc2c2c1nc(-c1cccs1)n2CCC1CCNCC1 (as salt: trifluoroacetate) (hydrate or solvate) [Example 66, 1-[2-(4-Piperidyl)ethyl]-2-(2-thienyl)-4-trifluoromethyl-1H-imidazo[4,5-c]-quinoline]
14 | 217 to 219 °C (dec.) | FC(F)(F)c1nc2cc(Cl)ccc2c2c1nc(-c1cccs1)n2CCC1CCNCC1 (as salt: trifluoroacetate) (hydrate or solvate) [Example 77, 7-Chloro-1-[2-(4-piperidyl)ethyl]-2-(2-thienyl)-4-trifluoromethyl-1H-imidazo-[4,5-c]quinoline]
15 | 252 to 254 °C (dec.) | Fc1ccc2c(c1)nc(C(F)(F)F)c1nc(-c3ccc[nH]3)n(CCC3CCNCC3)c12 (as salt: trifluoroacetate) (hydrate or solvate) [Example 81, 7-Fluoro-1-[2-(4-piperidyl)ethyl]-2-(2-pyrrolyl)-4-trifluoromethyl-1H-imidazo-[4,5-c]quinoline]
16 | 249 to 250 °C (dec.) | Fc1ccc2c(c1)nc(C(F)(F)F)c1nc(-c3ncc[nH]3)n(CCC3CCNCC3)c12 (as salt: trifluoroacetate) (hydrate or solvate) [Example 83, 7-Fluoro-2-(2-1H-imidazolyl)-1-[2-(4-piperidyl)ethyl]-4-trifluoromethyl-1H-imidazo[4,5-c]quinoline]
17 | 234 to 235 °C (dec.) | Fc1ccc2c(c1)nc(C(F)(F)F)c1nc(-c3cccs3)n(CCC3CCNCC3)c12 (as salt: trifluoroacetate) (hydrate or solvate) [Example 85, 7-Fluoro-1-[2-(4-piperidyl)ethyl]-2-(2-thienyl)-4-trifluoromethyl-1H-imidazo-[4,5-c]quinoline]
18 | 280 to 284 °C (dec.) | Cc1ccc2c(c1)nc(C(F)(F)F)c1nc(-c3ccc[nH]3)n(CCC3CCNCC3)c12 (as salt: trifluoroacetate) (hydrate or solvate) [Example 87, 7-Methyl-1-[2-(4-piperidyl)ethyl]-2-(2-pyrrolyl)-4-trifluoromethyl-1H-imidazo-[4,5-c]quinoline]

Row | melting point | SMILES
19 | 239 to 241 °C (dec.) | Cc1ccc2c(c1)nc(C(F)(F)F)c1nc(-c3nccs3)n(CCC3CCNCC3)c12 (as salt: trifluoroacetate) (hydrate or solvate) [Example 88, 7-Methyl-1-[2-(4-piperidyl)ethyl]-2-(2-thiazolyl)-4-trifluoromethyl-1H-imidazo-[4,5-c]quinoline]
20 | 303 to 305 °C (dec.) | Cc1ccc2c(c1)nc(C(F)(F)F)c1nc(-c3ncc[nH]3)n(CCC3CCNCC3)c12 (as salt: trifluoroacetate) (hydrate or solvate) [Example 89, 2-(2-1H-Imidazolyl)-7-methyl-1-[2-(4-piperidyl)ethyl]-4-trifluoromethyl-1H-imidazo[4,5-c]quinoline]
21 | 236 to 238 °C (dec.) | Cc1ccc2c(c1)nc(C(F)(F)F)c1nc(-c3cccs3)n(CCC3CCNCC3)c12 (as salt: trifluoroacetate) (hydrate or solvate) [Example 91, 7-Methyl-1-[2-(4-piperidyl)ethyl]-2-(2-thienyl)-4-trifluoromethyl-1H-imidazo-[4,5-c]quinoline]
22 | 233 to 234 °C (dec.) | Cc1cccc2c1nc(C(F)(F)F)c1nc(-c3ccc[nH]3)n(CCC3CCNCC3)c12 (as salt: trifluoroacetate) (hydrate or solvate) [Example 94, 6-Methyl-1-[2-(4-piperidyl)ethyl]-2-(2-pyrrolyl)-4-trifluoromethyl-1H-imidazo-[4,5-c]quinoline]
23 | 306 to 308 °C (dec.) | Cc1cccc2c1nc(C(F)(F)F)c1nc(-c3ncc[nH]3)n(CCC3CCNCC3)c12 (as salt: trifluoroacetate) (hydrate or solvate) [Example 96, 2-(2-1H-Imidazolyl)-6-methyl-1-[2-(4-piperidyl)ethyl]-4-trifluoromethyl-1H-imidazo[4,5-c]quinoline]
24 | 227 to 229 °C (dec.) | Cc1cccc2c1nc(C(F)(F)F)c1nc(-c3cccs3)n(CCC3CCNCC3)c12 (as salt: trifluoroacetate) (hydrate or solvate) [Example 98, 6-Methyl-1-[2-(4-piperidyl)ethyl]-2-(2-thienyl)-4-trifluoromethyl-1H-imidazo-[4,5-c]quinoline]
25 | 224 to 228 °C (dec.) | FC(F)(F)c1nc2ccccc2c2c1nc(-c1ccccc1)n2CCC1CNCCO1 (centres unmarked) (as salt: trifluoroacetate) (hydrate or solvate) [Example 101, 1-[2-(2-Morpholinyl)ethyl]-2-phenyl-4-trifluoromethyl-1H-imidazo[4,5-c]-quinoline]
26 | 245 to 251 °C (dec.) | N#Cc1nc2ccccc2c2c1nc(-c1ccccc1)n2CCC1CCNCC1 (as salt: trifluoroacetate) (hydrate or solvate) [Example 117, 4-Cyano-2-phenyl-1-[2-(4-piperidyl)ethyl]-1H-imidazo[4,5-c]quinoline]
27 | 212 to 215 °C | O=C(O)c1nc2ccccc2c2c1nc(-c1ccccc1)n2CCC1CCNCC1 (as salt: trifluoroacetate) (hydrate or solvate) [Example 118, 2-Phenyl-1-[2-(4-piperidyl)ethyl]-1H-imidazo[4,5-c]quinoline-4-carboxylic acid]
28 | 182.5 to 184 °C | FC(F)(F)c1nc2ccccc2c2c1nc(C1CCCCC1)n2CCC1CCNCC1 (as salt: trifluoroacetate) [Example 71, 2-Cyclohexyl-1-[2-(4-piperidyl)ethyl]-4-trifluoromethyl-1H-imidazo[4,5-c]quinoline]
29 | 290 to 295 °C (dec.) | FC(F)(F)c1nc2cc(Cl)ccc2c2c1nc(-c1ncc[nH]1)n2CCC1CCNCC1 (as salt: trifluoroacetate) [Example 75, 7-Chloro-2-(2-1H-imidazolyl)-1-[2-(4-piperidyl)ethyl]-4-trifluoromethyl-1H-imidazo[4,5-c]quinoline]
30 | 236 to 237 °C (dec.) | FC(F)(F)c1nc2cc(Cl)ccc2c2c1nc(C1CCCCC1)n2CCC1CCNCC1 (as salt: trifluoroacetate) [Example 79, 7-Chloro-2-cyclohexyl-1-[2-(4-piperidyl)ethyl]-4-trifluoromethyl-1H-imidazo-[4,5-c]quinoline]
31 | 240 to 242 °C (dec.) | Fc1ccc2c(c1)nc(C(F)(F)F)c1nc(-c3ccccc3)n(CCC3CCNCC3)c12 (as salt: trifluoroacetate) [Example 80, 7-Fluoro-2-phenyl-1-[2-(4-piperidyl)ethyl]-4-trifluoromethyl-1H-imidazo[4,5-c]-quinoline]
32 | 236 to 237 °C (dec.) | Fc1ccc2c(c1)nc(C(F)(F)F)c1nc(-c3nccs3)n(CCC3CCNCC3)c12 (as salt: trifluoroacetate) [Example 82, 7-Fluoro-1-[2-(4-piperidyl)ethyl]-2-(2-thiazolyl)-4-trifluoromethyl-1H-imidazo-[4,5-c]quinoline]
33 | 234 to 235 °C (dec.) | Cc1ccc2c(c1)nc(C(F)(F)F)c1nc(-c3ccccc3)n(CCC3CCNCC3)c12 (as salt: trifluoroacetate) [Example 86, 7-Methyl-2-phenyl-1-[2-(4-piperidyl)ethyl]-4-trifluoromethyl-1H-imidazo[4,5-c]-quinoline]
34 | 218 to 219 °C (dec.) | Cc1cccc2c1nc(C(F)(F)F)c1nc(-c3ccccc3)n(CCC3CCNCC3)c12 (as salt: trifluoroacetate) [Example 93, 6-Methyl-2-phenyl-1-[2-(4-piperidyl)ethyl]-4-trifluoromethyl-1H-imidazo-[4,5-c]quinoline]
35 | 243 to 245 °C (dec.) | Cc1cccc2c1nc(C(F)(F)F)c1nc(-c3nccs3)n(CCC3CCNCC3)c12 (as salt: trifluoroacetate) [Example 95, 6-Methyl-1-[2-(4-piperidyl)ethyl]-2-(2-thiazolyl)-4-trifluoromethyl-1H-imidazo-[4,5-c]quinoline]
